For this test, the system named is immobilized GST-tagged bait protein domains. The test is described as follows: ProP-PD phage selections (HD2 P8, sublibraries, HD2 P3, HD1 P8) with NGS and confidence level. As to conditions: for HD2_nucleus confidence: library HD2 P8 nucleus. In kind it is binding, human.
[1] abbreviates: library HD2, bait EPS15_EH__P42566_121_215, whether the validated benchmark motif instance was recovered in the ProP-PD selection (TRUE/FALSE).
[2] abbreviates: bait MAP1LC3A_ATG8 (Q9H492 2-121), HD2 library, benchmark motif instance recovered in the ProP-PD selection (TRUE/FALSE).
Where [3] appears, read: bait MAP1LC3B_ATG8 (Q9GZQ8 2-119), HD2 library, benchmark motif instance recovered in the ProP-PD selection (TRUE/FALSE).
The mark [4] stands for this setting: HD2 library, bait TNKS_TANK-peptide-bind__O95271_174_649, known motif instance of the benchmarking set found (TRUE) or not found (FALSE) among selected peptides.
[5] abbreviates: bait KPNA4_Arm (O00629 68-487), HD2 library, benchmark motif instance recovered in the ProP-PD selection (TRUE/FALSE).
Where [6] appears, read: bait WDR5_WD_1234567_P61964_21_334.
Setting [7] is: bait PABP-B_PABP__P11940_544_623, HD2 library, whether the validated benchmark motif instance was recovered in the ProP-PD selection (TRUE/FALSE).
The mark [8] stands for this setting: library HD2, bait YAP1_WW_1_P46937_169_207, validated benchmark motif instance, in_library_check TRUE, TRUE/FALSE = instance recovered in ProP-PD selection.
Setting [9] is: HD2 library, bait SUMO1_SUMO__P63165_1_101, known motif instance of the benchmarking set found (TRUE) or not found (FALSE) among selected peptides.
Setting [10] is: bait CALM1_EF-hand__P0DP23_2_149, library HD2, benchmarking set of validated motif instances, TRUE = motif instance recovered in the ProP-PD selection.

Consider FPTDERSWVYSPLHYS, for which the HD confidence (bait TLN1_PTB__Q9Y490_309_401, library HD) was found to be 3. The substance further had a p3_HD2 confidence (bait TLN1_PTB__Q9Y490_309_401, library HD2 P3) of 2. Besides, the p3_HD2 count proportions (bait TLN1_PTB__Q9Y490_309_401, library HD2 P3, mean normalised NGS counts) is on record as 0.001295. In addition, the p3_HD2 mean counts (bait TLN1_PTB__Q9Y490_309_401, library HD2 P3, mean raw NGS counts, all selections) was found to be 12.2. Moreover, under “bait TLN1_PTB__Q9Y490_309_401, library HD2 P8”, the HD2 confidence worked out at 4. This substance had an HD2_nc confidence (bait TLN1_PTB__Q9Y490_309_401, library HD2 P8 nucleocytoplasmic) of 3. Further, the HD2_nc count proportions (bait TLN1_PTB__Q9Y490_309_401, library HD2 P8 nucleocytoplasmic, mean normalised NGS counts) is reported as 0.1307. Also, for the setting “bait TLN1_PTB__Q9Y490_309_401, library HD2 P8 nucleocytoplasmic, mean raw NGS counts, all selections”, the HD2_nc mean counts came to 5802.8. Where the note is “bait TLN1_PTB__Q9Y490_309_401, library HD, mean normalised NGS counts”, the HD count proportions is recorded as 0.08207. Further, the HD mean counts (bait TLN1_PTB__Q9Y490_309_401, library HD, mean raw NGS counts, all selections) is recorded as 2181.
For FPTGSSSTNPFL-------, the motif_found result under setting [1] is on record as “FALSE”.
For the substance “FRHRLWAVLTVQAYARGMIARRLHQRLRAEY [MYO7A 840-856]”, under “HD2 library, bait CALM1_EF-hand__P0DP23_2_149, benchmark motif instance, in_library_check FALSE, in_library_coverage 0”, the motif_found result was “FALSE”.
On to FRPENEEDILVVTTQGEVE, for which the motif_found result is given as “FALSE” under setting [2] and “FALSE” under setting [3].
Turning to GAQASVGSRSEGEGEAASADDG, the motif_found entry under setting [4] was “FALSE”.
As to GCMKTCPLIDLEVDNGPAQ [GGA2], the motif_found entry (bait CLTC_Clathrin-propeller__Q00610_1_364, library HD2, benchmarking set of validated motif instances, TRUE = motif instance recovered in the ProP-PD selection) is listed as “FALSE”.
As for GDSQGRKRRQTSMTDFYHSKRRLIFSKRKP-, the motif_found entry under setting [5] is given as “FALSE”.
GEAWGHSSRTSPLDNV registered an HD2_nucleus confidence under setting [6] of 4.
Turning to GEYVRVKLQLNPAAREFKPDVKSKPVS, the motif_found result under setting [7] is reported as “FALSE”.
Take GGFDTEPDEFSDFDRLRTALPTSG [EPN1]: the motif_found result (bait AP2B1_adaptin__P63010_700_937, library HD2, benchmarking set of validated motif instances, TRUE = motif instance recovered in the ProP-PD selection) is given as “FALSE”.
Under “library HD2, bait VASP_EVH1__P50552_1_114, confidence level of best matching selected peptide (4 High, 2-3 Medium, 1 Low)”, GGMNWADLLPPPPAHP came in with a best_confidence of 3. The substance also registered a best_specificity (library HD2, bait VASP_EVH1__P50552_1_114, specificity score of best matching selected peptide) of 0.99. In addition, for the setting “library HD2, bait VASP_EVH1__P50552_1_114, validated benchmark motif instance, in_library_check TRUE, TRUE/FALSE = instance recovered in ProP-PD selection”, the motif_found entry is “TRUE”.
Consider GHPESPPRKRLKSKGSDKDF, for which the motif_found result under setting [5] is reported as “FALSE”.
With GHSPPPAYTPMSGNQF, under “library HD2, bait YAP1_WW_1_P46937_169_207, confidence level of best matching selected peptide (4 High, 2-3 Medium, 1 Low)”, the best_confidence is listed as 3. Moreover, for the setting “library HD2, bait YAP1_WW_1_P46937_169_207, specificity score of best matching selected peptide”, the best_specificity was found to be 1. Besides, the motif_found entry under setting [8] is “TRUE”.
In turn, GHSSRTSPLDNVGREL yielded an HD2_nucleus confidence under setting [6] of 4.
Regarding GLAFGAFTNPFTAPAAQSP, the motif_found result under setting [1] is “FALSE”.
Regarding GMEHRGPPPEYPFKGMPP, the motif_found result runs as follows: (bait NEDD4_WW_4_P46934_890_928, HD2 library, whether the validated benchmark motif instance was recovered in the ProP-PD selection (TRUE/FALSE)) “FALSE”; under setting [8], “FALSE”.
For GNVIRWHNQETGEQIAIKQC, the motif_found result (library HD2, bait Keap1_KELCH__Q14145_321_609, whether the validated benchmark motif instance was recovered in the ProP-PD selection (TRUE/FALSE)) was “FALSE”.
As to GPLRPVLEYIDLVSSDDEEPSTSYTD, the motif_found entry under setting [9] is listed as “FALSE”.
Consider GPPSLNYIPPVLQLSG, for which the best_specificity (bait CEP55_EABR__Q53EZ4_160_217, library HD2, best matching peptide) is given as 1. The best_confidence (bait CEP55_EABR__Q53EZ4_160_217, library HD2, confidence level of best matching peptide (4 = High, 2 or 3 = Medium, 1 = Low)) is listed as 2.
In turn, GPTPTEPPPPYSFRPE yielded an HD2_cytoplasm confidence (bait NEDD4_WW_4_P46934_890_928, HD2 P8 cytoplasm sublibrary, confidence level (4 = High, 2-3 = Medium, 1 = Low)) of 4.
With GQSLKVMPCLAPIAAKVGS, the motif_found entry (library HD2, bait ZMYND11_coiled-coil-MYND__Q15326_480_602, validated benchmark motif instance, in_library_check TRUE, TRUE/FALSE = instance recovered in ProP-PD selection) is “FALSE”.
As to GRAQAEQWAAEFIQQQGTS, under “bait PEX14_Pex14__O75381_16_84, HD2 library, whether the validated benchmark motif instance was recovered in the ProP-PD selection (TRUE/FALSE)”, the motif_found result is “FALSE”.
For the substance GRDSPPSWRPQPDGEASQTEDV, under setting [4], the motif_found result is “FALSE”.
Regarding GSSGNTHDDFVMIDFKPAFS, under setting [3], the motif_found entry was “FALSE”.
Turning to GTNPTLVSVPNPVFGSDTFCEP, the motif_found result (HD2 library, bait TLN1_PTB__Q9Y490_309_401, known motif instance of the benchmarking set found (TRUE) or not found (FALSE) among selected peptides) is listed as “FALSE”.
“GYRQSPDGACSV,YRQSPDGACS,LRNSATGYRQSPDGACSVPSAR,YRQSPDGACSV [LNPEP 95-102]”: the motif_found result (HD2 library, bait TNKS_TANK-peptide-bind__O95271_174_649, benchmark motif instance, in_library_check FALSE, in_library_coverage 0) is on record as “FALSE”.
For the substance HDDFVMIDFKPAFSKD, under setting [2], the motif_found entry is “TRUE”. The same substance displayed a best_confidence (bait MAP1LC3A_ATG8 (Q9H492 2-121), HD2 library, confidence level (1-4) of best matching peptide) of 3. For the same substance, the best_specificity (bait MAP1LC3A_ATG8 (Q9H492 2-121), HD2 library, specificity score of best matching peptide) stood at 1.
Take HLNNDSSTTIIIDSSDETTESPTVGTAQ: the motif_found result under setting [9] is “FALSE”.
In turn, HPAPSWVAFAHTGAWG gave an HD2 confidence (bait AP2B1_adaptin__P63010_700_937, HD2 P8 selection, non primary paralogue peptide match, confidence level -4 to 4: 4 = High, 3 or 2 = Medium, 1 = Low, 0 = Filtered/Noise) of 3.
Take “HTPRLPTLPKRVP,RRAFWHTPRLPTLPKRVPRAGEAR [CCDC8]”: for the setting “bait ANKRA2_Ank__Q9H9E1_142_313, library HD2, benchmarking set of validated motif instances, TRUE = motif instance recovered in the ProP-PD selection”, the motif_found result is “FALSE”.
For the substance IIYDRKFLMECRNSPV, the best_specificity (library HD2, bait EIF4E_eIF4E__P06730_1_217, best matching peptide) came out at 1. Also, the best_confidence (library HD2, bait EIF4E_eIF4E__P06730_1_217, confidence level of best matching peptide (4 High, 2-3 Medium, 1 Low)) came to 2. Where the note is “library HD2, bait EIF4E_eIF4E__P06730_1_217, whether the validated benchmark motif instance was recovered in the ProP-PD selection (TRUE/FALSE)”, the motif_found result is given as “TRUE”.
For the setting “bait PABP-B_PABP__P11940_544_623, HD2 library, confidence level (1-4) of best matching selected peptide”, ILSKSNLNPDAKEFIP returned a best_confidence of 2. In addition, the best_specificity (bait PABP-B_PABP__P11940_544_623, HD2 library, specificity score of best matching selected peptide) came out at 1. In addition, the motif_found entry under setting [7] is “TRUE”.
Regarding IPDTPSPTVSVITISSDTDE, the motif_found entry under setting [9] was “FALSE”.
IPSAPLYEEITYSGIS registered a best_specificity (HD2 library, bait TSG101_UEV__Q99816_1_145, best matching selected peptide) of 1. Further, the best_confidence (HD2 library, bait TSG101_UEV__Q99816_1_145, confidence level of best matching selected peptide) stood at 3. Also, the motif_found result (HD2 library, bait TSG101_UEV__Q99816_1_145, known motif instance of the benchmarking set found (TRUE) or not found (FALSE) among selected peptides) is “TRUE”.
With IQPDSPAPNPFSEEDEHPQ, under setting [1], the motif_found result is given as “FALSE”.
With IREHVTGCARSEGFYTIDKKD, the motif_found entry (library HD2, bait WDR5_WD_1234567_P61964_21_334, validated benchmark motif instance, in_library_check TRUE, TRUE/FALSE = instance recovered in ProP-PD selection) was “FALSE”.
IYKSAVTTVVNPKYEGK----- [ITGB1 789-796]: the motif_found entry (HD2 library, bait TLN1_PTB__Q9Y490_309_401, benchmark motif instance, in_library_check FALSE, in_library_coverage 0) was “FALSE”.
For the substance KATVEKPSNPFSGDLQKTF, the motif_found result under setting [1] was “FALSE”.
With “KDKEEVQRKRQKLMPNFSDS,IKDKEEVQRKRQKLMPNFSD [NFKB1 361-365]”, the motif_found entry (HD2 library, bait KPNA4_Arm__O00629_68_487, benchmark motif instance, in_library_check FALSE, in_library_coverage 0) was “FALSE”.
Regarding KDLATVNSNPFDDPDAAEL, under setting [1], the motif_found entry is “FALSE”.
Consider KEPGGSRAHSSHLKSKKGQ, for which the motif_found entry (library HD2, bait USP7_MATH-TRAF__Q93009_53_206, validated benchmark motif instance, in_library_check TRUE, TRUE/FALSE = instance recovered in ProP-PD selection) is “FALSE”.
As to KILRLSGKP, the motif_found result (bait MAD2L1_HORMA (Q13257 1-205), HD2 library, benchmark motif instance recovered in the ProP-PD selection (TRUE/FALSE)) is “FALSE”.
As to KISPPTPKPRPPRPLPVAPGS, the motif_found entry (library HD2, bait YES1_SH3__P07947_90_152, validated benchmark motif instance, in_library_check TRUE, TRUE/FALSE = instance recovered in ProP-PD selection) is “FALSE”.
KKAFVHMPTLPNLDFHKTGDGL: the motif_found result (library HD2, bait ANKRA2_Ank__Q9H9E1_142_313, motif instance NOT in library (in_library_check FALSE, in_library_coverage 0)) was “FALSE”.
Turning to KKKATFRAITSTLASSFKRR [GRIN1], the motif_found entry under setting [10] is reported as “FALSE”.
Still for that read-out and setting: for KKRFSFKKSFKLSGFSFK [MARCKS] the value was “FALSE”.

The values above are taken from PMC8769072, “Proteome‐scale mapping of binding sites in the unstructured regions of the human proteome” (Molecular Systems Biology, 2022).
